Results taken from patent US6143774A, “Imidazole n-benzyldioxol derivatives, method for preparing same, resulting intermediates, pharmaceutical compositions and use of said derivatives as endothelin antagonists” (Hoechst Marion Roussel, priority 1995, dated 2000).

Tests used:
endothelin (ET1) [1] = assay: Protection against sudden death induced by IV injection of endothelin (ET1) in a female mouse; assay type: in vivo
Experimental: 5) Protection Against Sudden Death Induced by IV Injection of Endothelin (ET1) in a Female Mouse
A lethal dose of ET1 (10 nmole/kg IV) is injected into female mice. The solvent or the molecules to be studied are injected 10 minutes before (i.v. route) or 30 minutes before (oral route) the endothelin.
The protection is calculated in the form of ED50 (50% effective dose, or the dose capable of reducing the mortality by 50% relative to the control group).

Endothelin B receptor = target: T1, Endothelin B receptor (Rattus norvegicus, UniProt P21451); assay: Study of the affinity for the endothelin B receptor (125I endothelin displacement, rat cortex plus cerebellum membranes); assay type: binding; details: rat rear cortex plus cerebellum membranes, 25° C., 60 minutes
T1 construct: A membrane preparation is prepared from the rear cortex plus the cerebellum of a rat; from tissue; host or cells: rat rear cortex plus cerebellum (membrane preparation)
T1 sequence (P21451 27-442): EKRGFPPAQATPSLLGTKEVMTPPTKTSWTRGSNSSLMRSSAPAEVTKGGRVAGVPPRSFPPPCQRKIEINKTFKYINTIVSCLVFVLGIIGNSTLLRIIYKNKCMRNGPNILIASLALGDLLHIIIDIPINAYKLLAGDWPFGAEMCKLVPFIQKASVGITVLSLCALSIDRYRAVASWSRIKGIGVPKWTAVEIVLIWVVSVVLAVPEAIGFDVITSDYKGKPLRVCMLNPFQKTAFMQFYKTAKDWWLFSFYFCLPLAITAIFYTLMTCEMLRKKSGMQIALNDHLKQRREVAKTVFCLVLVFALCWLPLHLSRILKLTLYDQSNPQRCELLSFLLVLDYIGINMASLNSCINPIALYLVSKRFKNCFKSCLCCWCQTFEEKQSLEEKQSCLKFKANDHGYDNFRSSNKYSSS
Experimental: 2) Study of the Affinity for the Endothelin B Receptor
A membrane preparation is prepared from the rear cortex plus the cerebellum of a rat. The tissue is ground up in a POLYTRON in a 50 mM Tris buffer pH=7.4.
(§1) After 30 minutes at 25° C. (W.B.) the homogenate is centrifuged at 30,000 g for 15 minutes (2 centrifugations with intermediate take-up in the Tris buffer pH 7.4).
(§2) The pellets are suspended in an incubation buffer (25 mM Tris, 5 microg/ml pepstatin A, 3 microg/ml aprotinin, 0.1 mM PMSF, 3 mM EDTA, 1 mM EGTA pH 7.4).
(§3) 2 ml aliquoted fractions are distributed in hemolysis tubes and ^125 I endothelin (approx. 5,000 dpm/tube) and the product to be studied are added. (The product is first tested at 3×10^-5 M three times). When the tested product displaces more than 50% of the radioactivity specifically bound to the receptor, it is tested again according to a range of 7 concentrations in order to determine the concentration which inhibits by 50% the radioactivity specifically bound to the receptor. In this way the 50% inhibitory concentration is determined.
(§4) The non-specific bond is determined by the addition of endothelin at 10^-6 M (three times). After incubation at 25° C. for 60 minutes, replacing in a water bath at 0° C. for 5 minutes, filtration under reduced pressure and rinsing with Tris buffer pH 7.4, the radioactivity is counted in the presence of scintillating Triton.
(§5) The result is expressed directly as the 50% inhibitory concentration (IC50), that is to say as the concentration of product studied, expressed in nM, necessary to displace 50% of the specific radioactivity fixed to the receptor studied.

Endothelin A receptor = target: T2, Endothelin A receptor (Rattus norvegicus, UniProt P26684); assay: Study of the affinity for the endothelin A receptor (125I endothelin displacement, rat heart ventricle membranes); assay type: binding; details: rat heart (ventricles) membranes, 25° C., 60 minutes
T2 construct: A membrane preparation is prepared from the heart (ventricles) of a rat; from tissue; host or cells: rat heart ventricles (membrane preparation)
T2 sequence (P26684 21-426): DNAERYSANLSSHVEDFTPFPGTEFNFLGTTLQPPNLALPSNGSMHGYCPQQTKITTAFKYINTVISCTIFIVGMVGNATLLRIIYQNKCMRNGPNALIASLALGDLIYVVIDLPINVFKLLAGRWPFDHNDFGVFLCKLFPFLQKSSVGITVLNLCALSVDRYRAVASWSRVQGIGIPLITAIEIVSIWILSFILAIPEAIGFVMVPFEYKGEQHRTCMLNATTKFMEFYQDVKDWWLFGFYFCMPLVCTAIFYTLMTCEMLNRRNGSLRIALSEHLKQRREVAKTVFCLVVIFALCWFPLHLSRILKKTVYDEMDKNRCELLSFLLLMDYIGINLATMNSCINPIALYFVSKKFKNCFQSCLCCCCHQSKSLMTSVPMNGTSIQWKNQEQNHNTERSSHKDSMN
Experimental: 1) Study of the Affinity for the Endothelin a Receptor
A membrane preparation is prepared from the heart (ventricles) of a rat. The tissue is ground up in a POLYTRON in a 50 mM Tris buffer pH=7.4.
as §1, §2
as §3, with “[…]” for “3×10^-5 M”
as §4, §5

[2] = test system: endothelin (ET), isolated thoracic aorta of a rat; assay: Antagonistic activity of endothelin on the isolated aorta of a rat; set-up: species or system Wistar male rats
Experimental: The thoracic aorta is removed from Wistar male rats (approximately 350 g) (IFFA CREDO France) anaesthetized with pentobarbital (60 mg/kg IP) then exsanguinated. The aorta is rapidly put into a physiological solution at ambient temperature. A 1 to 2 mm ring without endothelium is put in an isolated organ bath containing 5 ml of the following physiological solution (composition in mM NaCl: 118.4; KCl: 4.7; MgSO4, 7H2 O: 1.2; CaCl2, 2H2 O: 2.5; KH2 PO4 : 1.2; NaHCO3 : 25; glucose: 10.1) the medium is maintained at 37° C. and oxygenated with a mixture of oxygen (95%) carbon dioxide (5%). The initial pressure imposed is 2 g, the rings are left at rest for 60 to 90 minutes. The reference contraction is caused by the addition of 2 successive concentrations of 3 μM of noradrenalin, left in contact for 15 minutes, followed by 3 washings, the second response serves as the reference contraction. After return to the base line, incubation is carried out for 15 minutes with a concentration of the product to be tested or the solvent then cumulative concentrations of endothelin are added every 5 minutes (concentrations of […]). The inhibition induced by the product is calculated as a % of the reduction relative to the reactivity of the control curves over 2 points: concentration of 10 and 30 nM of endothelin.

endothelin (ET1) [3] = assay: Test for antagonistic activity of endothelin in the demedullated rat; assay type: in vivo, male Sprague Dawley rats
Experimental: 3) Test for Antagonistic Activity of Endothelin in the Demedullated Rat
Male Sprague Dawley rats (250 to 350 g) are anaesthetized (sodium pentobarbital 60 mg/kg injected by intraperitoneal route). The animal is placed under assisted respiration and a bilateral section of the vagus nerves is carried out. The rat is then demedullated.
The average arterial pressure is recorded with a heparin catheter (PE50) introduced into the carotid of the animal, and connected via a pressure sensor and an amplifier to a recorder (Gould, Pressure Processor). A catheter is introduced into the pudendal vein in order to allow injection of the molecules to be studied. After a stabilization period (about 15 minutes), the product or the solvent is injected 10 minutes before a range of increasing doses of endothelin which are injected every 2 minutes (0.1-0.3-1-3-10 μg/kg).
The anatagonistic activity of the products is estimated by the percentage inhibition in the increase in pressure induced by the endothelin at doses of 3 and 10 μg/kg.

[4] = 10 min, IV, 10 minutes before ET1 10 nmole/kg IV
[5] = 0.5 h, PO, 30 minutes before ET1 10 nmole/kg IV

SMILES | ED50 (endothelin (ET1) [1]; [4]) [mg/kg] | ED50 (endothelin (ET1) [1]; [5]) [mg/kg] | IC50 (Endothelin B receptor) [nM] | IC50 (Endothelin A receptor) [nM] | % inhibition of contraction ([2]; antagonist 0.1 μM, ET 30 nM) [%] | % inhibition of contraction ([2]; antagonist 0.1 μM, ET 10 Nm) [%] | % inhibition of contraction ([2]; antagonist 1.0 μM, ET 30 nM) [%] | % inhibition of contraction ([2]; antagonist 1.0 μM, ET 10 Nm) [%] | % inhibition of vasoconstriction (endothelin (ET1) [3]; dose 0.3 mg/kg, ET1 10 μg/kg) [%] | % inhibition of vasoconstriction (endothelin (ET1) [3]; dose 0.3 mg/kg, ET1 (3 μg/kg)) [%] | % inhibition of vasoconstriction (endothelin (ET1) [3]; dose 1.0 mg/kg, ET1 10 μg/kg) [%] | % inhibition of vasoconstriction (endothelin (ET1) [3]; dose 1.0 mg/kg, ET1 (3 μg/kg)) [%] | % inhibition of vasoconstriction (endothelin (ET1) [3]; dose 3.0 mg/kg, ET1 10 μg/kg) [%] | % inhibition of vasoconstriction (endothelin (ET1) [3]; dose 3.0 mg/kg, ET1 (3 μg/kg)) [%] | % inhibition of vasoconstriction (endothelin (ET1) [3]; dose 10.0 mg/kg, ET1 10 μg/kg) [%] | % inhibition of vasoconstriction (endothelin (ET1) [3]; dose 10.0 mg/kg, ET1 (3 μg/kg)) [%]
CCCc1nc(SC2CCC(CC(=O)O)CC2)c(C(=O)O)n1Cc1cc2c(cc1Cl)OCO2 (centres unmarked) [Example 2, 4-((4-(carboxymethyl)cyclohexyl)thio)-1-((6-chloro-1,3-benzodioxol-5-yl)methyl)-2-propyl-1H-imidazole-5-carboxylic acid] | 0.8 | 1.1 | 194 | 1.1 | 61 | 71 | 100 | 94 | 39 | 56 | 65 | 60 | 77 | 63 |  | 
O=C(O)CCCCCSc1nc(C2OCCO2)n(Cc2cc3c(cc2Cl)OCO3)c1C(=O)O [Example 3] | 5 | 24.1 |  |  |  |  |  |  |  |  | 53 | 52 | 71 | 64 |  | 
COCc1nc(SCCCCCC(=O)O)c(C(=O)O)n1Cc1cc2c(cc1Cl)OCO2 [Example 4] |  |  |  |  |  |  |  |  |  |  |  |  |  |  | 38 | 49
CCCc1nc(SCCCCCC(=O)O)c(C(=O)O)n1Cc1cc2c(cc1Cl)OCO2 [Example 6] | 3.9 |  | 293 | 1.2 | 99 | 96 | 98 | 96 |  |  | 33 | 42 | 37 | 49 |  | 
CCCc1nc(SCCCCC(=O)O)c(C(=O)O)n1Cc1cc2c(cc1Cl)OCO2 [Example 8, 4-((4-carboxybutyl)thio)-1-((6-chloro-1,3-benzodioxol-5-yl)methyl)-2-(propyl)-1H-imidazole-5-carboxylic acid] | 3.5 |  | 600 | 1.9 | 97 | 97 | 96 | 95 |  |  | 22 | 40 | 47 | 57 |  | 
CCCc1nc(SC2CCC(=CC(=O)O)CC2)c(C(=O)O)n1Cc1cc2c(cc1Cl)OCO2 (centres unmarked) [Example 10, 4-((4-(carboxymethylene)cyclohexyl)thio)-1-((6-chloro 1,3-benzodioxol-5-yl)methyl)-2-propyl-1H-imidazole-5-carboxylic acid] | 3.3 | 3.2 | 210 | 1.2 |  |  |  |  |  |  | 39 | 59 | 61 | 58 |  | 
CCCCc1nc(SCCCCCC(=O)O)c(C(=O)O)n1Cc1cc2c(cc1Cl)OCO2 [Example 12, 2-butyl 4-((5-carboxypentyl)thio) 1-((6-chloro 1,3-benzodioxol-5-yl)methyl)-1H-imidazole-5-carboxylic acid] |  |  |  | 1.1 | 65 | 88 | 98 | 98 |  |  |  |  |  |  | 35 | 30
